Here are results for two compounds from patent publication US20110039700A1, “Method for Improved Utilization of the Production Potential of Transgenic Plants Introduction” (priority 2008, published 2011).

Common to all, as to type: in vivo
In assay [1] the test system is Spodoptera frugiperda. The experiment in a line: Foliar application Spodoptera frugiperda/cotton. To be noted: 72 h, read-out: Mortality in % after 3^d. As for the experimental part:
Individually potted transgenic cotton plants with Lepidoptera resistance and herbicide resistance (Line DP444 BG/RR) are treated with the desired product against the fall army worm (Spodoptera frugiperda).
(§1) After the desired period of time, the mortality in % is determined. Here 100% means that all caterpillars have been killed; 0% means that none of the caterpillars have been killed.

A further assay deals with Spodoptera exigua. The experiment in a line: Foliar application Spodoptera exigua/maize. Conditions: 96 h, read-out: Mortality in % after 4^d. The protocol:
Pots containing in each case 5 transgenic maize plants with Lepidoptera, Coleoptera and/or herbicide resistance are treated against the beet army worm (Spodoptera exigua) in 2 replications.
as §1

Assay [2] concerns Spodoptera frugiperda. Description: Drench application Spodoptera frugiperda/maize. Conditions: soil, 96 h, read-out: Mortality in % after 4^d. As for the experimental part: Pots containing in each case 5 transgenic maize plants with Lepidoptera, Coleoptera and/or herbicide resistance are treated by drenching against the fall army worm (Spodoptera frugiperda) in 2 replications.
as §1

As for `CCC(C)(C)C(=O)OC1=C(c2ccc(Cl)cc2Cl)C(=O)OC12CCCCC2` [spirodiclofen], the mortality at 500 ppm in the assay with Spodoptera frugiperda [1] turned out to be 0%.

As to `Cc1cc(C)c(C2=C(OC(=O)CC(C)(C)C)C3(CCCC3)OC2=O)c(C)c1` [spiromesifen], the mortality at 100 ppm in the assay on Spodoptera exigua is 0%; with Spodoptera frugiperda [2], 10%.

Usually mortality stands for the percentage killed.
